In brackets after ≈: the same amount, converted by molar mass. Activity calls are given as the source filed them. No cut-off for these calls is given here.
Experiments:
[1] = target: T1, C-C chemokine receptor type 5 (Macaca fascicularis, UniProt P61814); experiment: Displacement of radiolabeled MIP-1alpha from cynomolgus monkey CCR5 expressed in CHO cells; format: cell-based
[2] = target: T2, C-C chemokine receptor type 5 (Homo sapiens, UniProt P51681); experiment: Displacement of [125I]RANTES from human CCR5 expressed in CHO cells; format: cell-based
T2 sequence (P51681 whole entry): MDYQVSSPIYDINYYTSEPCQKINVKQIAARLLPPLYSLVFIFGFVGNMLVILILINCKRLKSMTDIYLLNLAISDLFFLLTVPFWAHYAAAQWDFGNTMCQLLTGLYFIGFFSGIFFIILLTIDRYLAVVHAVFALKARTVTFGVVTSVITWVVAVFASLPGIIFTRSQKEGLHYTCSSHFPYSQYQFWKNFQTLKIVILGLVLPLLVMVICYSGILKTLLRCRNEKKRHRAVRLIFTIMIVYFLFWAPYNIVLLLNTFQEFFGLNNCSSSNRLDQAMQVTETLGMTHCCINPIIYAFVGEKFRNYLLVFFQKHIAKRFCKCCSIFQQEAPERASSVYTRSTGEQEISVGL

[3] = tested on: Heart; experiment: Toxicity in isolated rabbit heart model assessed as adverse side effect upto 1.0 uM; format: tissue-based, Oryctolagus cuniculus; details: ex_vivo
[4] = target: C-X-C chemokine receptor type 2 (Homo sapiens) (UniProt P25025); experiment: Inhibition of CXCR2 upto 1 uM
[5] = AUC in cynomolgus monkey at 1 mg/kg, po; format: ADME, organism-based, Macaca fascicularis; design: dose 1 mg/kg, route oral; details: plasma
[6] = Oral bioavailability in rat; format: ADME, organism-based; details: in vivo
[7] = Mean residence time in cynomolgus monkey; format: ADME, organism-based, Macaca fascicularis; details: in vivo
[8] = tested on: Cynomolgus monkey; experiment: Prolongation of graft survival in cynomolgus monkey kidney transplantation model at 40 mg/kg, po qd in presence of cyclosporine A; format: functional, Macaca fascicularis
[9] = target: C-C chemokine receptor type 7 (Homo sapiens) (UniProt P32248); experiment: Inhibition of CCR7 upto 1 uM
C-C chemokine receptor type 7 (Homo sapiens), sequence (P32248 whole entry): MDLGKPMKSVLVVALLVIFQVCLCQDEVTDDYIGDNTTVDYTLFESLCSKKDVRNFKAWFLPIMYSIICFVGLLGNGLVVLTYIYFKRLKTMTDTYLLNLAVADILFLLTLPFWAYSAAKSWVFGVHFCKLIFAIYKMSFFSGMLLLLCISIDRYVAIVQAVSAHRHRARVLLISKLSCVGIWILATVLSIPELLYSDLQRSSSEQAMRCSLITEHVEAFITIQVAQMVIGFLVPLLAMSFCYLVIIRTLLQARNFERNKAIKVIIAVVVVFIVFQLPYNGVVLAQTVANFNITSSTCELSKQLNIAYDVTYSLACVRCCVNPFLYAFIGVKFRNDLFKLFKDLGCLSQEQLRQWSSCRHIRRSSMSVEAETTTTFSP

[10] = target: C-X-C chemokine receptor type 1 (Homo sapiens) (UniProt P25024); experiment: Inhibition of CXCR1 upto 1 uM
[11] = Tmax in po dosed cynomolgus monkey; format: ADME, organism-based, Macaca fascicularis; details: in vivo
[12] = tested on: Heart; experiment: Toxicity in isolated rabbit heart model assessed as adverse side effect upto 10 uM; format: tissue-based, Oryctolagus cuniculus
[13] = Solubility in water; format: physicochemical
[14] = Dissociation constant, pKa of the compound; format: physicochemical
[15] = Protein binding in rat plasma; format: ADME, cell-free
[16] = Intrinsic clearance in human liver microsomes; format: ADME, Microsome
[17] = target: T2, C-C chemokine receptor type 5; experiment: Antagonist activity at human CCR5 expressed in L1.2 cells assessed as MIP-1-alpha-induced Ca2+ mobilization; format: functional, cell-based
[18] = target: C-C chemokine receptor type 4 (Homo sapiens) (UniProt P51679); experiment: Inhibition of CCR4 upto 1 uM
[19] = Intrinsic clearance in rat liver microsomes; format: ADME, Microsome
[20] = Cmax in rat at 1 mg/kg, po; format: ADME, organism-based; design: dose 1 mg/kg, route oral; details: in vivo
[21] = target: C-C chemokine receptor type 2 (Homo sapiens) (UniProt P41597); experiment: Inhibition of CCR2 upto 1 uM
C-C chemokine receptor type 2 (Homo sapiens), sequence (P41597 whole entry, looked up): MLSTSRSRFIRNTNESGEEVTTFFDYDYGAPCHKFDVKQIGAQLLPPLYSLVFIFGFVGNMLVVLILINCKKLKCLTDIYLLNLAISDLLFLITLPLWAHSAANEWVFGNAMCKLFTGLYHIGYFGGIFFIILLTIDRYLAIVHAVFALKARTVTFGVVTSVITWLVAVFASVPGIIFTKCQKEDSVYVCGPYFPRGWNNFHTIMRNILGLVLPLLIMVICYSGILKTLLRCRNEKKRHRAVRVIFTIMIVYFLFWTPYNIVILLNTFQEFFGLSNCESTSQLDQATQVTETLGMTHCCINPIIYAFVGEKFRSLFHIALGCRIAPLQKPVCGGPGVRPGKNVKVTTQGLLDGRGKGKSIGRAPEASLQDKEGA

[22] = Tmax in po dosed rat; format: ADME, organism-based; details: in vivo
[23] = target: T1, C-C chemokine receptor type 5; experiment: Antagonist activity at cynomolgus monkey CCR5 expressed in CHO cells assessed as MIP-1-alpha-induced Ca2+ mobilization; format: functional, cell-based
[24] = Half life in po dosed rat; format: ADME, organism-based; details: in vivo
[25] = Cmax in dog at 1 mg/kg, po; format: ADME, organism-based, Canis lupus familiaris; design: dose 1 mg/kg, route oral; details: in vivo
[26] = target: T2, C-C chemokine receptor type 5; experiment: Antagonist activity at human CCR5 expressed in CHO cells assessed as MIP-1-alpha-induced Ca2+ mobilization; format: functional, cell-based
[27] = target: C-X-C chemokine receptor type 4 (Homo sapiens) (UniProt P61073); experiment: Inhibition of CXCR4 upto 1 uM
[28] = target: Cytochrome P450 2D6 (Homo sapiens, UniProt P10635); experiment: Inhibition of CYP2D6; format: ADME
Cytochrome P450 2D6, sequence (P10635 whole entry): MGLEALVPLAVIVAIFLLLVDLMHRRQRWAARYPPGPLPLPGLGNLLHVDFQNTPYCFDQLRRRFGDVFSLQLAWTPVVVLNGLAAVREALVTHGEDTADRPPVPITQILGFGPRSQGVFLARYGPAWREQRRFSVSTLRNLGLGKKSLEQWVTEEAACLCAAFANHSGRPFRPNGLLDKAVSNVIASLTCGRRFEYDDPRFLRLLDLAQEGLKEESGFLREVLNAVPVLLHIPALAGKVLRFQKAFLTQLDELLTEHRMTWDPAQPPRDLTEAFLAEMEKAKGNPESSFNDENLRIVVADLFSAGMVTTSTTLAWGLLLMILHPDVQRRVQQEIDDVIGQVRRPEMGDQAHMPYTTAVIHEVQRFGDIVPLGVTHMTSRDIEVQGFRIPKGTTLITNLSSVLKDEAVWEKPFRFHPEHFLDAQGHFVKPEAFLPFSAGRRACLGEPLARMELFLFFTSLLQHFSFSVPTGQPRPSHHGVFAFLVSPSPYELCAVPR

[29] = Cmax in cynomolgus monkey at 1 mg/kg, po; format: ADME, organism-based, Macaca fascicularis; design: dose 1 mg/kg, route oral; details: in vivo
[30] = Solubility at pH 7.4; format: physicochemical; details: buffer
[31] = target: Cytochrome P450 2C9 (Homo sapiens, UniProt P11712); experiment: Inhibition of CYP2C9; format: ADME
Cytochrome P450 2C9, sequence (P11712 whole entry): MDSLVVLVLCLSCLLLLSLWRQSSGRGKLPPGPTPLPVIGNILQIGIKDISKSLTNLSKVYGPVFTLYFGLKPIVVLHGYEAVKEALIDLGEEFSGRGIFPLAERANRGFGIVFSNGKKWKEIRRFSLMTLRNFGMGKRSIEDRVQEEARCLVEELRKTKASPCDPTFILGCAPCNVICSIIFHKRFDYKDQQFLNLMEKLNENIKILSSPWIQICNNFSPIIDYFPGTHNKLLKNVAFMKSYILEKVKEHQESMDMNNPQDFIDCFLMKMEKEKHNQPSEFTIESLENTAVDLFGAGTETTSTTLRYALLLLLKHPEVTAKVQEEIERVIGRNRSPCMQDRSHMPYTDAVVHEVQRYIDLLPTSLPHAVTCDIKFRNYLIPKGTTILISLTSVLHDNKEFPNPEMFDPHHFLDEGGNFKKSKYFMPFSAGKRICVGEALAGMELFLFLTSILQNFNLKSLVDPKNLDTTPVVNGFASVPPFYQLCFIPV

[32] = target: C-C chemokine receptor type 6 (Homo sapiens) (UniProt P51684); experiment: Inhibition of CCR6 upto 1 uM
C-C chemokine receptor type 6 (Homo sapiens), sequence (P51684 whole entry): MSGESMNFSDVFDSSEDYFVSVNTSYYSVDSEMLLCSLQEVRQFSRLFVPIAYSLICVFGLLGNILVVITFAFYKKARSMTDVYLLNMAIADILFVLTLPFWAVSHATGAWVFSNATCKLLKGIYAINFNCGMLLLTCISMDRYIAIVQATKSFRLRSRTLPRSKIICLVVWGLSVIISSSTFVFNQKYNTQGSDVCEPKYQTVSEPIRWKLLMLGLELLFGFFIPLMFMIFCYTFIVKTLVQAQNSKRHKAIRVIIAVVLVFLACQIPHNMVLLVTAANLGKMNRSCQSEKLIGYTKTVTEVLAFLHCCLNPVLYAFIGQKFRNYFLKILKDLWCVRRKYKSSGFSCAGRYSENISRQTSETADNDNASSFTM

[33] = target: C-X-C chemokine receptor type 6 (Homo sapiens) (UniProt O00574); experiment: Inhibition of CXCR6 upto 1 uM
[34] = Permeability from basolateral to apical side of human Caco-2 cell membranes; format: ADME, cell-based; details: read-out: permeability (converted)
[35] = target: C-X-C chemokine receptor type 3 (Homo sapiens) (UniProt P49682); experiment: Inhibition of CXCR3 upto 1 uM
[36] = tested on: Cynomolgus monkey; experiment: Prolongation of graft survival in cynomolgus monkey kidney transplantation model at 20 mg/kg, sc bid in presence of cyclosporine A; format: functional, Macaca fascicularis; details: route subcutaneous
[37] = Mean residence time in dog; format: ADME, organism-based, Canis lupus familiaris; details: in vivo
[38] = target: C-C chemokine receptor type 5 (Mus musculus) (UniProt P51682); experiment: Binding affinity to mouse CCR5
C-C chemokine receptor type 5 (Mus musculus), sequence (P51682 whole entry, looked up): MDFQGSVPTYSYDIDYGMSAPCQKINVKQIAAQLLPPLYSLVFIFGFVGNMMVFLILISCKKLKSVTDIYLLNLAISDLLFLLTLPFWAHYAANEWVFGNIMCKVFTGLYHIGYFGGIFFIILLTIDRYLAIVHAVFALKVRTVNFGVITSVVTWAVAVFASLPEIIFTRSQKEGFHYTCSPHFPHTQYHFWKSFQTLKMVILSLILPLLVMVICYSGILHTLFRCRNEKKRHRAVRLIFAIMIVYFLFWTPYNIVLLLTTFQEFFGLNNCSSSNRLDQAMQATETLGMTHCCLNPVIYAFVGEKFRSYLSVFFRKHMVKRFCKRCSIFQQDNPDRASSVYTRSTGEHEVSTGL

[39] = Inhibition of muscarinic acetylcholine receptor at 1 uM
[40] = Oral bioavailability in dog; format: ADME, organism-based, Canis lupus familiaris; details: in vivo
[41] = Half life in po dosed dog; format: ADME, organism-based, Canis lupus familiaris; details: in vivo
[42] = target: Cytochrome P450 3A4 (Homo sapiens, UniProt P08684); experiment: Inhibition of CYP3A4; format: ADME
Cytochrome P450 3A4, sequence (P08684 whole entry): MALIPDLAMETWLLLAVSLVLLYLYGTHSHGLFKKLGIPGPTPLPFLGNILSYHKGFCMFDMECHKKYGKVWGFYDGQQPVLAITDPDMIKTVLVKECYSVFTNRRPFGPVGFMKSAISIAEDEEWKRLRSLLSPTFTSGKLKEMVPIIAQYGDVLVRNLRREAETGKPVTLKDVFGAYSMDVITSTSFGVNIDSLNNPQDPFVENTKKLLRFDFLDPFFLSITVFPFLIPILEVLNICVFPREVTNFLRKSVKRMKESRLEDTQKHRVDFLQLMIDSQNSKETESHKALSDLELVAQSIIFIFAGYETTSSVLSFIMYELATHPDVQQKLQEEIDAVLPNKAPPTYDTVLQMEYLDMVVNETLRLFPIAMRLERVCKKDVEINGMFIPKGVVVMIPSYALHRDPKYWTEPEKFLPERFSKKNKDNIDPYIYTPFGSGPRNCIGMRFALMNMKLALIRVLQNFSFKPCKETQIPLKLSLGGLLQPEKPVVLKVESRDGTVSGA

[43] = AUC in rat at 1 mg/kg, po; format: ADME, organism-based; design: dose 1 mg/kg, route oral; details: plasma
[44] = Protein binding in human plasma; format: ADME, cell-free
[45] = target: C-C chemokine receptor type 1 (Homo sapiens) (UniProt P32246); experiment: Inhibition of CCR1 upto 1 uM
[46] = AUC in dog at 1 mg/kg, po; format: ADME, organism-based, Canis lupus familiaris; design: dose 1 mg/kg, route oral; details: plasma
[47] = Permeability from apical to basolateral side of human Caco-2 cell membranes; format: ADME, cell-based; details: read-out: permeability (converted)
[48] = target: C-C chemokine receptor type 3 (Homo sapiens) (UniProt P51677); experiment: Inhibition of CCR3 upto 1 uM
[49] = tested on: Cynomolgus monkey; experiment: Prolongation of graft survival in cynomolgus monkey kidney transplantation model at 20 mg/kg, sc bid; format: functional, Macaca fascicularis; details: route subcutaneous
[50] = Lipophilicity, log D at pH 6.8; format: physicochemical; details: buffer
[51] = Oral bioavailability in cynomolgus monkey; format: ADME, organism-based, Macaca fascicularis; details: in vivo
[52] = target: Cytochrome P450 1A2 (Homo sapiens, UniProt P05177); experiment: Inhibition of CYP1A2; format: ADME
[53] = Tmax in po dosed dog; format: ADME, organism-based, Canis lupus familiaris; details: in vivo
[54] = target: Cytochrome P450 2C19 (Homo sapiens, UniProt P33261); experiment: Inhibition of CYP2C19; format: ADME
[55] = Partition coefficient, log P of the compound; format: physicochemical; details: octanol/water
[56] = Half life in po dosed cynomolgus monkey; format: ADME, organism-based, Macaca fascicularis; details: in vivo
[57] = tested on: Heart; experiment: Toxicity in isolated rabbit heart model assessed as adverse side effect upto 0.5 uM; format: tissue-based, Oryctolagus cuniculus; details: ex_vivo
[58] = target: Voltage-gated inwardly rectifying potassium channel KCNH2 (Homo sapiens, UniProt Q12809); experiment: Displacement of [3H]dofetilide from human ERG expressed in HEK293 cell membranes
Voltage-gated inwardly rectifying potassium channel KCNH2, sequence (Q12809 whole entry): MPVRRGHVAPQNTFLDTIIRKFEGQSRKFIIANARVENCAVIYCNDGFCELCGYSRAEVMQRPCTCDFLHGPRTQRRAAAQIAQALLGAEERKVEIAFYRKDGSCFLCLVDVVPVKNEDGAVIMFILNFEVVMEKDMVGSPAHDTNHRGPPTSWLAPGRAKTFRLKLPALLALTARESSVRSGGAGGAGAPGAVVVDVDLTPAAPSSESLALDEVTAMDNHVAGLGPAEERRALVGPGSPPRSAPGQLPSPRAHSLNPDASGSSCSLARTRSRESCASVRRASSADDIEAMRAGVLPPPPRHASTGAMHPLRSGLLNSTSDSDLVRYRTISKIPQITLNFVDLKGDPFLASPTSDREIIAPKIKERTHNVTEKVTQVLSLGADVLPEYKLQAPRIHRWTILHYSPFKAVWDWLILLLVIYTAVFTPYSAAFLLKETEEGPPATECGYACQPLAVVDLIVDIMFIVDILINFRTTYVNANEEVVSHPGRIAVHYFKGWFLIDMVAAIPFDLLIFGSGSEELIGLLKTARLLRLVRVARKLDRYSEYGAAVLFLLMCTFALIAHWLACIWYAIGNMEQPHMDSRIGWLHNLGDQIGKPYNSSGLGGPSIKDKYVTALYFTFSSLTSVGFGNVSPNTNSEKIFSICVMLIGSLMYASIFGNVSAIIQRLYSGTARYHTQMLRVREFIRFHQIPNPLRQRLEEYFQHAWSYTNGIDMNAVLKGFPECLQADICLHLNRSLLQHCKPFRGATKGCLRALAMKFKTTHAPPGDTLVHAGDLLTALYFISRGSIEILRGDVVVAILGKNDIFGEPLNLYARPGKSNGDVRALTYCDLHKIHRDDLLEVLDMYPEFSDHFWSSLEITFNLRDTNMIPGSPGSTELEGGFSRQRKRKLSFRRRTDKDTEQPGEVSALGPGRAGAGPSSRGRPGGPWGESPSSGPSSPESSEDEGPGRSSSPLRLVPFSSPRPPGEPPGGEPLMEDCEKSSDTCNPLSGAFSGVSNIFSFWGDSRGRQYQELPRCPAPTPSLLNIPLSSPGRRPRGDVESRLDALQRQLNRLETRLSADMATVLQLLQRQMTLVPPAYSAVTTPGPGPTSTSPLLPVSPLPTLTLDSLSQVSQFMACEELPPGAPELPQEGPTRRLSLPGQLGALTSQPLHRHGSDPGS

[59] = tested on: Heart; experiment: Toxicity in isolated rabbit heart model assessed as adverse side effect upto 5.0 uM; format: tissue-based, Oryctolagus cuniculus
[60] = tested on: Heart; experiment: Toxicity in isolated rabbit heart model assessed as adverse side effect upto 1.5 uM; format: tissue-based, Oryctolagus cuniculus

SMILES: CC1(N2CCC(N(c3ccccc3)c3cccnc3)CC2)CCN(C(=O)c2c(Cl)c[n+]([O-])cc2Cl)CC1
- IC50 [1]: 4.2 nM
- IC50 [2]: 1 nM
- Activity [3]: Non-toxic

SMILES: Cc1cc[n+]([O-])c(C)c1C(=O)N1CCC(C)(N2CCC(N(c3ccccc3)c3cccnc3)CC2)CC1
- Activity [4]: inactive
- AUC [5]: 503 ng·h/mL
- bioavailability [6]: 22%
- MRT [7]: 6 h
- Activity [8]: 39 days
- Activity [9]: inactive
- Activity [10]: inactive
- Tmax [11]: 0.5 h
- Activity [12]: Non-toxic
- solubility [13]: 1000 µg/mL (≈ 2000 µM)
- pKa [14]: 5.5
- fraction unbound [15]: 0.48
- microsomal CLint [16]: < 15 µL/min/mg
- IC50 [17]: 16.2 nM
- Activity [18]: inactive
- microsomal CLint [19]: < 15 µL/min/mg
- Cmax [20]: 5.8 ng/mL
- Activity [21]: inactive
- Tmax [22]: 0.4 h
- IC50 [23]: 64 nM
- half-life [24]: 8.1 h
- Cmax [25]: 84 ng/mL
- IC50 [26]: 43.6 nM
- IC50 [1]: 8.1 nM
- Activity [27]: inactive
- IC50 [28]: > 10000 nM
- Cmax [29]: 93 ng/mL
- solubility [30]: > 12500 µg/mL
- IC50 [31]: > 10000 nM
- Activity [32]: inactive
- Activity [33]: inactive
- Papp B→A [34]: 10.8 ×10⁻⁶ cm/s
- IC50 [2]: 5.1 nM
- Activity [35]: inactive
- Activity [36]: >100 days
- MRT [37]: 8 h
- Activity [38]: inactive
- Activity [39]: inactive
- bioavailability [40]: 56%
- half-life [41]: 7.9 h
- IC50 [42]: 5300 nM
- AUC [43]: 41 ng·h/mL
- fraction unbound [44]: 0.62
- Activity [45]: inactive
- AUC [46]: 278 ng·h/mL
- Papp A→B [47]: 0.667 ×10⁻⁶ cm/s
- Activity [48]: inactive
- Activity [49]: 6 days
- logD [50]: 0.8
- bioavailability [51]: 43%
- IC50 [52]: > 10000 nM
- Tmax [53]: 0.6 h
- IC50 [54]: > 10000 nM
- logP [55]: 2.2
- half-life [56]: 6.3 h

SMILES: Cc1cc[n+]([O-])c(C)c1C(=O)N1CCC(C)(N2CCC(N(c3ccccc3)c3ccccc3)CC2)CC1
- IC50 [1]: 3.4 nM
- Activity [57]: Non-toxic

SMILES: Cc1ncnc(C)c1C(=O)N1CCC(C)(N2CCC(N(c3ccccc3)c3ccccc3)CC2)CC1
- Activity [57]: Non-toxic

SMILES: Cc1ccnc(C)c1C(=O)N1CCC(C)(N2CCC(N(c3ccccc3)c3ccccc3)CC2)CC1
- IC50 [58]: 570 nM
- Activity [57]: Non-toxic

SMILES: Cc1cc[n+]([O-])c(C)c1C(=O)N1CCC(C)(N2CCC(N(Cc3cccc(C#N)c3)c3ccccc3)CC2)CC1
- Activity [3]: Non-toxic

SMILES: Cc1cccc(C)c1C(=O)N1CCC(C)(N2CCC(N(c3ccccc3)c3cccnc3)CC2)CC1
- IC50 [1]: 1.1 nM
- IC50 [2]: 0.5 nM
- Activity [57]: Non-toxic

SMILES: Cc1nc(CN(c2ccccc2)C2CCN(C3(C)CCN(C(=O)c4c(C)cc[n+]([O-])c4C)CC3)CC2)cs1
- IC50 [58]: 12200 nM
- IC50 [1]: 107 nM
- IC50 [2]: 1.7 nM
- Activity [59]: Non-toxic

SMILES: Cc1cccc(C)c1C(=O)N1CCC(C)(N2CCC(N(c3ccccc3)c3ccncc3)CC2)CC1
- IC50 [1]: 9.8 nM
- IC50 [2]: 2 nM
- Activity [57]: Non-toxic

SMILES: Cc1cc[n+]([O-])c(C)c1C(=O)N1CCC(C)(N2CCC(N(c3ccccc3)c3ccccn3)CC2)CC1
- IC50 [1]: 12 nM
- IC50 [2]: 1.8 nM
- Activity [3]: Non-toxic

SMILES: Cc1cc[n+]([O-])c(C)c1C(=O)N1CCC(C)(N2CCC(N(Cc3ccccc3)c3ccccc3)CC2)CC1
- Activity [57]: Non-toxic

SMILES: Cc1ccnc(C)c1C(=O)N1CCC(C)(N2CCC(N(c3ccccc3)c3cccnc3)CC2)CC1
- IC50 [1]: 0.8 nM
- IC50 [2]: 0.9 nM
- Activity [3]: Non-toxic

SMILES: Cc1cccc(C)c1C(=O)N1CCC(C)(N2CCC(N(Cc3ccccc3)c3ccccc3)CC2)CC1
- IC50 [58]: 670 nM
- Activity [60]: Non-toxic

SMILES: Cc1cccc(C)c1C(=O)N1CCC(C)(N2CCC(N(c3ccccc3)c3ccccc3)CC2)CC1
- IC50 [58]: 150 nM
- Activity [3]: Non-toxic

SMILES: Cc1nc[n+]([O-])c(C)c1C(=O)N1CCC(C)(N2CCC(N(c3ccccc3)c3ccccc3)CC2)CC1
- IC50 [58]: 1200 nM
- Activity [60]: Non-toxic

SMILES: CC1(N2CCC(N(c3ccccc3)c3cccnc3)CC2)CCN(C(=O)c2c(Cl)cncc2Cl)CC1
- IC50 [1]: 3.2 nM
- IC50 [2]: 0.8 nM
- Activity [57]: Non-toxic

SMILES: Cc1cccnc1C(=O)N1CCC(C)(N2CCC(N(c3ccccc3)c3cccnc3)CC2)CC1
- IC50 [1]: 39 nM
- IC50 [2]: 6.5 nM
- Activity [57]: Non-toxic

SMILES: CC1(N2CCC(N(c3ccccc3)c3cccnc3)CC2)CCN(C(=O)c2cccc3ccccc23)CC1
- IC50 [1]: 3.6 nM
- IC50 [2]: 1.3 nM
- Activity [3]: Non-toxic

Source: ChEMBL document CHEMBL1141522, “Reduced cardiac side-effect potential by introduction of polar groups: discovery of NIBR-1282, an orally bioavailable CCR5 antagonist which is active in vivo” (Bioorg Med Chem Lett, 2008)
